Measured values reported in patent US12180193B2, “Accelerating fibrosarcoma protein degrading compounds and associated methods of use” (Arvinas Operations, Inc., priority 2020, dated 2024).

How the values were obtained:
BRAF G466V = target: T1, BRAF G466V (Homo sapiens, UniProt P15056, G466V); test: Cellular assay of target protein degradation, T-Rex 293 cells stably transfected with HA-BRAF G466V (HA immunofluorescence, high content imaging); assay type: cell-based; settings: T-Rex 293 HA-BRAF G466V; for DC50: half maximal degradation, read-out: BRaf G466V DC50; for Dmax: maximum degradation observed
T1 construct: expressed in transfected cells
T1 sequence (P15056 whole entry G466V): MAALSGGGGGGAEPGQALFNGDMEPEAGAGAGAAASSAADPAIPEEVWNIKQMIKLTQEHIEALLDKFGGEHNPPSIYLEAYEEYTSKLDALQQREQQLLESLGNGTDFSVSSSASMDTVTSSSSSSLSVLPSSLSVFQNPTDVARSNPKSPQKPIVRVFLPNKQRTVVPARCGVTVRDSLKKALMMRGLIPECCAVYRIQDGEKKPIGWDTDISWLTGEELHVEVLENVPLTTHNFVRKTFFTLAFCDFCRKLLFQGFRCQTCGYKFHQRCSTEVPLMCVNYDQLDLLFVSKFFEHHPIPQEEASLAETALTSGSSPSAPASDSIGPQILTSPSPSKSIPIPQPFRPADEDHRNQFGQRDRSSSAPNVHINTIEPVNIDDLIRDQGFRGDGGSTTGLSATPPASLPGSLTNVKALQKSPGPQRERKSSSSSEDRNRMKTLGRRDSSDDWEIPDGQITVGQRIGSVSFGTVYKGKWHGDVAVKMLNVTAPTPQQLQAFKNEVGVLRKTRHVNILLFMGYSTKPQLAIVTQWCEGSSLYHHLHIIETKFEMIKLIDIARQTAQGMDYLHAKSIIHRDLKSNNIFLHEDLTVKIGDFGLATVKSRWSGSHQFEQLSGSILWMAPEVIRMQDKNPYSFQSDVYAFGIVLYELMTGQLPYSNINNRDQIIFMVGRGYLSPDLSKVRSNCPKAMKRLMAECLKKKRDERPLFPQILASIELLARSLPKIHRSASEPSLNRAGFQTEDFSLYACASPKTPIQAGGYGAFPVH
Summary of the method: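 Read-out is HA immunofluorescence by high content imaging, with Hoechst and phalloidin co-staining, giving DC50 and Dmax as a percentage of control. Compound exposure lasts 24 hours at 37° C over 30 nM to 3 pM in 0.1% DMSO, with doxycycline-induced HA-BRAF G466V.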

BRAF V600E = target: T2, BRAF V600E (Homo sapiens, UniProt P15056, V600E); test: Cellular assay of target protein degradation, T-Rex 293 cells stably transfected with HA-BRAF_V600E (HA immunofluorescence, high content imaging); assay type: cell-based; settings: T-Rex 293 HA-BRAF V600E; for DC50: half maximal degradation, read-out: BRaf V600E DC50; for Dmax: maximum degradation observed
T2 construct: expressed in transfected cells
T2 sequence (P15056 whole entry V600E): as the sequence (P15056 whole entry G466V) above, with V466G, V600E counted along it
Summary of the method: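 Cells are plated with 1 ng/mL doxycycline and grown 24 h. Compound is then added (final 1 μM–0.1 nM, 0.1% DMSO) for another 24 h at 37 °C, followed by fixing, HA immunostaining and imaging to obtain DC50 and Dmax.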

Row | DC50 (BRAF G466V) [nM] | Dmax (BRAF G466V) [%] | DC50 (BRAF V600E) [nM] | Dmax (BRAF V600E) [%] | Compound
1 | 1 to 10 | > 70 | 5 to 50 | 35 to 70 | O=C1CCC(N2Cc3cc(C4CCN(C[C@@H]5CCN(c6ccc(-c7cnc8[nH]cc(C(=O)c9c(F)ccc(NS(=O)(=O)N%10CC[C@@H](F)C%10)c9F)c8c7)cc6)C[C@@H]5F)CC4)ccc3C2=O)C(=O)N1 (stereo partly drawn) [Compound 125, (3R)-N-[3-(5-{4-[(3R,4S)-4-({4-[2-(2,6-dioxopiperidin-3-yl)-1-oxo-2,3-dihydro-1H-isoindol-5-yl]piperidin-1-yl}methyl)-3-fluoropiperidin-1-yl]phenyl}-1H-pyrrolo[2,3-b]pyridine-3-carbonyl)-2,4-difluorophenyl]-3-fluoropyrrolidine-1-sulfonamide]
2 | < 1 | > 70 | 5 to 50 | 35 to 70 | CCCS(=O)(=O)Nc1ccc(F)c(C(=O)c2c[nH]c3ncc(-c4ccc(N5CCC(CN6CCC(c7ccc8c(c7)CN(C7CCC(=O)NC7=O)C8=O)CC6)CC5)cc4)cc23)c1F (stereo not shown) [Compound 236, N-[3-(5-{4-[4-({4-[2-(2,6-dioxopiperidin-3-yl)-1-oxo-2,3-dihydro-1H-isoindol-5-yl]piperidin-1-yl}methyl)piperidin-1-yl]phenyl}-1H-pyrrolo[2,3-b]pyridine-3-carbonyl)-2,4-difluorophenyl]propane-1-sulfonamide]
3 | 1 to 10 | > 70 | < 5 | < 35 | COc1cc(N2CCN(CC3CCN(c4ccc(-c5cnc6[nH]cc(C(=O)c7c(F)ccc(NS(=O)(=O)N8CC[C@@H](F)C8)c7F)c6c5)cc4)CC3)CC2)ccc1C(=O)NC1CCC(=O)NC1=O (stereo partly drawn) [Compound 360, 4-(4-{[1-(4-{3-[2,6-difluoro-3-({[(3R)-3-fluoropyrrolidin-1-yl]sulfonyl}amino)benzoyl]-1H-pyrrolo[2,3-b]pyridin-5-yl}phenyl)piperidin-4-yl]methyl}piperazin-1-yl)-N-(2,6-dioxopiperidin-3-yl)-2-methoxybenzamide]
4 | 1 to 10 | 35 to 70 | 5 to 50 | 35 to 70 | O=C1CCC(N2Cc3cc(C(O)CCN4CC5(C4)CN(c4ccc(-c6cnc7[nH]cc(C(=O)c8c(F)ccc(NS(=O)(=O)N9CC[C@@H](F)C9)c8F)c7c6)cc4)C5)ccc3C2=O)C(=O)N1 (stereo partly drawn) [Compound 61, (3R)-N-(3-{5-[4-(6-{3-[2-(2,6-dioxopiperidin-3-yl)-1-oxo-2,3-dihydro-1H-isoindol-5-yl]-3-hydroxypropyl}-2,6-diazaspiro[3.3]heptan-2-yl)phenyl]-1H-pyrrolo[2,3-b]pyridine-3-carbonyl}-2,4-difluorophenyl)-3-fluoropyrrolidine-1-sulfonamide]
5 | > 30 | – | > 500 | – | COc1ccc(NS(=O)(=O)N2CC[C@@H](F)C2)c(OC)c1C(=O)c1c[nH]c2ncc(-c3ccc(N4CCC(CN5CCC(c6ccc7c(c6)CN(C6CCC(=O)NC6=O)C7=O)CC5)CC4)cc3)cc12 (stereo partly drawn) [Compound 275, (3R)-N-[3-(5-{4-[4-({4-[2-(2,6-dioxopiperidin-3-yl)-1-oxo-2,3-dihydro-1H-isoindol-5-yl]piperidin-1-yl}methyl)piperidin-1-yl]phenyl}-1H-pyrrolo[2,3-b]pyridine-3-carbonyl)-2,4-dimethoxyphenyl]-3-fluoropyrrolidine-1-sulfonamide]
6 | 1 to 10 | 35 to 70 | 50 to 500 | < 35 | O=C1CCC(N2Cc3cc(N4CC5(CCN(CC#Cc6ccc(-c7cnc8[nH]cc(C(=O)c9c(F)ccc(NS(=O)(=O)N%10CC[C@@H](F)C%10)c9F)c8c7)cc6)C5)C4)ccc3C2=O)C(=O)N1 (stereo partly drawn) [Compound 4, (3R)-N-(3-{5-[4-(3-{2-[2-(2,6-dioxopiperidin-3-yl)-1-oxo-2,3-dihydro-1H-isoindol-5-yl]-2,6-diazaspiro[3.4]octan-6-yl}prop-1-yn-1-yl)phenyl]-1H-pyrrolo [2,3-b]pyridine-3-carbonyl}-2,4-difluorophenyl)-3-fluoropyrrolidine-1-sulfonamide]
